“Also recorded” adds a separate entry of the source. Where a SMILES comes first, the peptide text is derived from it. [ ]: non-standard residue; d: D form. pGlu = O=C1CC[CH](C(=O)O)N1
How the values were obtained:
[1] = system: mouse E16 striatal neurons
Excerpt: Bars indicate mean±s.e.m.
CM represents culture medium and QUIN represents quinolinic acid. Bars indicate mean±s.e.m and *** indicates p<0.005 student t test.
The K252a inhibitor is a well-characterized inhibitor of TrkB receptor activation.

[2] = system: E16 mouse hippocampal neurons; assay: Hippocampal neuron survival (morphology plus MTT conversion, 48 h); type: cell-based; details: for EC50 / Emax: Mus musculus, Hippocampal neuron, 48 h; for EC50: read-out: EC50 of neuron survival dose-response; for Emax: read-out: intrinsic activity
Procedure: FIGS. 3A-3E are a series of neuron survival dose response curves of BDNF (FIG. 3A), Compound 1 (also referred to as BD2-1, FIG. 3B) Compound 2 (also referred to as BD2-2, FIG. 3C), Compound 3 (also referred to as BD2-3, FIG. 3D), and Compound 4 (also referred to as BD2-4, FIG. 3E) using Mouse E16 hippocampal neurons. Survival was determined as the total number of cells in each well that were both morphologically intact and filled with blue formazan MTT conversion product (Longo, F. M., Manthorpe, M. Xie, Y. M., and Varon, S. (1997) J Neurosci Res. 48, 1-17). Counts were normalized to survival achieved with 25 ng/mL BDNF. Survival was assessed at 48 hrs.
Hippocampal neurons were prepared from E16-17 mouse embryos as previously described (Yang, T. et al. (2003) J Neurosci 23, 3353-3363). Low density cultures were initiated in poly-L-lysine coated A/2 plates by adding 25 μl of cell suspension (2000 neurons/well; 12,500 cells/cm^2), 25 μl of DMEM containing 10% FBS, and different concentrations of recombinant BDNF, NGF, or TrkB-binding compounds to each well.
After 48 hours in culture, cell survival was assessed as previously described (Longo, F. M., Manthorpe, M., Xie, Y. M., Varon, S. (1997) J Neurosci Res 48, 1-17) using a combination of standard morphological criteria along with visual determination of whether a given cell converted MTT to its blue formazan product. Briefly, the number of surviving neurons was determined by counting the total number of cells in each well that were both morphologically intact and filed with blue product (Longo F. M., Manthorpe. M., Xie, Y. M. Varon, S. (1997) J Neurosci Res 48, 1-17). For each neurotrophin or compound concentration, duplicate wells were counted and the resulting values averaged. […] Counts were normalized to survival achieved with 25 ng/ml BDNF or to baseline survival. Fitting of dose-responsive curves was performed with SIGMAPLOT™ obtained from SYSTAT Software Inc. (Richmond, Calif., United States of America).
In order to understand the mechanisms of action of the BDNF loop 2 mimetics and to test the conjecture that they work via the targeted receptor, TrkB, the dose-dependent relationships of the survival-promoting activities of the mimetics was compared to BDNF using embryonic hippocampal neurons in culture conditions in which BDNF promotes neural survival. In the cultures, neurotrophic activity was mediated by BDNF principally through TrkB and p75^NTR, as they express little TrkA (Brann, A. B., et al. (1999) J Neurosci 19, 8199-8206; Bui, N. T., et al. (2002) J Neurochem 81, 594-605).

[3] = system: E16-17 hippocampal neurons; assay: Aβ oligomer-induced neuronal degeneration (Alzheimer's disease model); type: cell-based, mouse
Procedure: Neuronal cell survival in culture medium (CM) and with the addition of 10 μM AβScrambled oligomer are shown in the two bars on the left-hand side of the graph […]. Cells were also treated with 10 μM Aβ1-42 alone or in combination with NGF (100 ng/mL), NGF mimetic LM11A-31 (100 nM), a combination of NGF and LM11A-31, Compound 4 (BD2-4, 500 nM), Compound 24 (BD2-24, 500 nM), or either 20 or 100 ng/mL BDNF, as indicated under each bar. […] Mean+SE are shown and ***p<0.001 for survival above CM baseline.
The ability of the BDNF mimetics to prevent Aβ-induced neuronal degeneration was tested as a model of the compounds' ability to treat Alzheimer's disease. E16-17 hippocampal neurons were matured for 6 days and then incubated for 3 days with the indicated combinations of Aβ oligomer preparations (Dahigren, K. N., et al. (2002) J Biol Chem 277, 32046-32053), neurotrophins and neurotrophin mimetics. Following the three day incubation, neuronal survival was assessed using standard morphological criteria (Massa, S. M., et al. (2006) J Neurosci 26, 5288-5300.).

[4] = system: DARP32-positive neurons; assay: Quinolinic acid-induced death, DARP32-positive neurons only; type: cell-based, mouse
Procedure: FIG. 6C is a bar graph of the results of a study similar to that described for FIG. 6B only using Darp32-positive neurons.
A study similar to the one shown in FIG. 6B was conducted in which only DARP32-positive neurons were assessed. DARP32-positive neurons represent the population within the striatum that are particularly vulnerable in HD.

[5] = system: human SH-SY5Y neuroblastoma cells
Excerpt: Exposure of SH-SY5Y cells to 1-methyl-4-phenylpyridinium (MPP^+) with resulting cell death is a well-characterized model of Parkinson's disease (PD). […] BDNF has also been previously shown to protect dopaminergic neurons. Further, MPP^+ causes a PD-like condition in primates.
For the Parkinson's disease model assays, human SH-SY5Y cells were used after terminal differentiation into a dopaminergic phenotype (Presgraves. S. P., et al. (2004) Exp Neruol 190, 157-170). Human SH-SY5Y neuroblastoma cells were propagated to confluence in Dulbecco's Modified Eagle's media (DMEM) supplemented with 10% fetal calf serum, 100 μg/mL penicillin, 100 μg/mL streptomycin, 0.25 μg/mL amphotericin B, and […] non-essential amino acids and then sub-cultured for differentiation. For differentiation, the cells were incubated in same media containing 10 μM retinoic acid for 3 days; then the media was removed and replaced with media containing 160 nM of the phorbol ester 12-O-tetradecanoyl-phorbol-13-acetate (TPA) for 3 days of differentiation. The cells were then administered a range dose of BD2-4 or BDNF (1×10^−12 M to […]) in DMEM for 30 mins for three days prior to addition of 100 μM MPP^+. Following transfer of MPP^+ to the media, sister cultures were tested at 6, 12, 24, and 48 hrs for the cytotoxicity of MPP^+ as measured by the MTT and lactate dehydrogenase method (LDH) assays which accurately measure different aspects of cell death. In addition, the neuroprotective effects of a fixed dose of BD2-4 and BDNF on MPP^+ induced cell death were tested for in the presence and absence of TrkB inhibitor K252a (200 nM).

[6] = target: T1, TrkB (Homo sapiens, UniProt Q16620); assay: Trk phosphorylation at Y490, Western blot, NIH3T3 cells expressing TrkB; type: cell-based
T1 construct: expressed in transfected cells; host or cells: NIH3T3
Procedure: (§1) CM represents culture medium.
(§2) Western blots were performed as described previously (Yang, T. et al. (2003) J Neurosci 23, 3353-3363). Western blot signals were detected using the ECL Chemiluminescence System obtained by Amersham (Piscataway, N.J., United States of America) (Yang, T. et al. (2003) J Neurosci 23, 3353-3363). To detect the presence of anti-Trk antibodies, blots were probed with horseradish peroxidase-linked goat anti-rabbit IgG obtained from Amersham/Pharmacia Biotech (Piscataway, N.J., United States of America). Signals were detected by the ECL chemiluminescence system obtained from Amersham Biosciences (Piscataway, N.J., United States of America). To control for variation in protein loading, the blot was stripped and reprobed with β-actin monoclonal antibody obtained from Sigma (St. Louis, Mo., United States of America).
(§3) In order to assess the interactions of the BDNF loop 2 mimetic compounds with TrkB receptors, the ability of Compound 4 to activate TrkA, TrkB, and TrkC was compared in a series of Western blotting experiments.
(§4) In the bottom two panels of FIG. 5A, NIH3T3 cells expressing TrkA were used.

[7] = system: E16 mouse hippocampal neurons; assay: Hippocampal neuron survival (morphology plus MTT conversion, 48 h); type: cell-based; details: in the presence of a maximally effective BDNF concentration (50 ng/mL)
[8] = target: T2, TrkC (Homo sapiens, UniProt Q16288); assay: Trk phosphorylation at Y490, Western blot, NIH3T3 cells expressing TrkC; type: cell-based
T2 construct: expressed in transfected cells; host or cells: NIH3T3
Procedure: FIG. 5B is a digital composite image of Western blots monitoring TrkC activation as indicated by promotion of Trk phosphorylation at Y490 in NIH3T3 cells expressing TrkC. […] CM represents culture medium.
as §2, §3
In FIG. 5B, NIH3T3 cells expressing TrkC were used. The bottom panel indicates the total amount of TrkC present by probing with anti-TrkC antibodies.

[9] = target: T3, TrkA (Homo sapiens, UniProt P04629); assay: Trk phosphorylation at Y490, Western blot, NIH3T3 cells expressing TrkA; type: cell-based
T3 construct: expressed in transfected cells; host or cells: NIH3T3
Procedure: as §1, §2, §3, §4

T3 sequence (P04629 33-796, species assumed): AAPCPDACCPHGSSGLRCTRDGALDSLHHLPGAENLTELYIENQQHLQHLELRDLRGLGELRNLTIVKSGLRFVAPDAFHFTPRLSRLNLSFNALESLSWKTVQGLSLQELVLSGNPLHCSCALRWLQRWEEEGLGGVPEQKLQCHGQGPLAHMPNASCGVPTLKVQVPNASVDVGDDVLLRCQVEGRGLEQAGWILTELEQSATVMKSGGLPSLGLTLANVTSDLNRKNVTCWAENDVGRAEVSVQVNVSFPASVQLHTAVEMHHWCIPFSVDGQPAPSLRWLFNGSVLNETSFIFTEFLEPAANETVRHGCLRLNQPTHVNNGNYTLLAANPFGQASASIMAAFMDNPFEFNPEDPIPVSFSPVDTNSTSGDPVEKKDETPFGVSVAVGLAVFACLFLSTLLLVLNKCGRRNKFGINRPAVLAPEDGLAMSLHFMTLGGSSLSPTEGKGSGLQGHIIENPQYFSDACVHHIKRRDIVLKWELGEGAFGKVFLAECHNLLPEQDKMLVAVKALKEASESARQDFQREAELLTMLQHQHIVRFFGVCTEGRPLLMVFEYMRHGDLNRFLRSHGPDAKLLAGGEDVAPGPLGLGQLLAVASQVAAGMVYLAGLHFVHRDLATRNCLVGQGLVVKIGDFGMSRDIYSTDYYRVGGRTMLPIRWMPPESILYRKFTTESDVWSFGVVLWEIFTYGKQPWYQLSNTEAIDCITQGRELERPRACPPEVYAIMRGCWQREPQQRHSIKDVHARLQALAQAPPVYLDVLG
T2 sequence (Q16288 32-839, species assumed): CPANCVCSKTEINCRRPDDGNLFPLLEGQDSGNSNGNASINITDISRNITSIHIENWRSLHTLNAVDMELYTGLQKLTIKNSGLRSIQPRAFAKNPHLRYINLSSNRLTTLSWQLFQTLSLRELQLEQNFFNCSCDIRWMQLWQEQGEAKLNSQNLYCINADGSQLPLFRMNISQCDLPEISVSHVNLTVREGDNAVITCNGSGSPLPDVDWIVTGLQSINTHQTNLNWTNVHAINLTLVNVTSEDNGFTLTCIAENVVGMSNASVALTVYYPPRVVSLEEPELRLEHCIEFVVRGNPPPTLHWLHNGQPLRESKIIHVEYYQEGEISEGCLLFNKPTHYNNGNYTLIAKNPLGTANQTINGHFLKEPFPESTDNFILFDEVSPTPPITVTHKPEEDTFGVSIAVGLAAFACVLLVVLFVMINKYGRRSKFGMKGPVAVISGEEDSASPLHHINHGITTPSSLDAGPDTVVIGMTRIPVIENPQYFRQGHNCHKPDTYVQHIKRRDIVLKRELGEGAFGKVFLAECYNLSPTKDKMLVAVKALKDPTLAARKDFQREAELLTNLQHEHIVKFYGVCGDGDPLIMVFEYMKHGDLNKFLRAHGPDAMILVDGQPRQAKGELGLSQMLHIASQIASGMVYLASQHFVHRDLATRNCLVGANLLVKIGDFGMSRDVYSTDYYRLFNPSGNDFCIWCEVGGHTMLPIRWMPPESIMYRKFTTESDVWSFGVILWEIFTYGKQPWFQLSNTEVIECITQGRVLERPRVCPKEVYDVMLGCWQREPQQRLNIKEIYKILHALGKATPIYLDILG
T1 sequence (Q16620 32-822, species assumed): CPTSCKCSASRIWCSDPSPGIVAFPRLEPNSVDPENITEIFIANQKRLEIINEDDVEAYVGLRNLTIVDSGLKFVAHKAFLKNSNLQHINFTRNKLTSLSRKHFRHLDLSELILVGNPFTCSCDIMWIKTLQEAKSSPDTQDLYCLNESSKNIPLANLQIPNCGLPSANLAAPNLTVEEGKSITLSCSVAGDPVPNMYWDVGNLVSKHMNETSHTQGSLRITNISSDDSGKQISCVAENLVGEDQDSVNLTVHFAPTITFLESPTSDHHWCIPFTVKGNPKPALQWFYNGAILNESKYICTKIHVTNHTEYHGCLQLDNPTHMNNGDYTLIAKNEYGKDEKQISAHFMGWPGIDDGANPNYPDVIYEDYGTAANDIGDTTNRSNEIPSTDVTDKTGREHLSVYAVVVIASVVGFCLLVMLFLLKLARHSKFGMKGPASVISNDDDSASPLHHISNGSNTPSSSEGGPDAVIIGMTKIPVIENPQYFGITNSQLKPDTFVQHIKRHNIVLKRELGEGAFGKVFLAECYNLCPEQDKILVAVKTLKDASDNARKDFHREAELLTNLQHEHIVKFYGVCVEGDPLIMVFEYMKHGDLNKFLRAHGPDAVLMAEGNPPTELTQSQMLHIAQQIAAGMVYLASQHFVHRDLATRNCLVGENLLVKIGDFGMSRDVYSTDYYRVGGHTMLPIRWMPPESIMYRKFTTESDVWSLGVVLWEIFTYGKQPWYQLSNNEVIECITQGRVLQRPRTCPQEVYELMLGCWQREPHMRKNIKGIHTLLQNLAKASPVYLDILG

## O=C(O)c1cccnc1C(=O)O [quinolinic acid]
[1]; quinolinic acid at 7.5 mM versus culture medium alone
  death of neurons: approximately 50%

## COC(=O)C(Cc1c[nH]c2ccccc12)NC(=O)C(Cc1c[nH]cn1)NC(=O)C1CCC(=O)N1 (stereo not drawn) [Compound 1] ([pGlu]-His-Trp-OMe; configuration not given here)
[2]
  EC50: 0.1 to 1 nM
  Emax: 50 to 200%

## NC(=O)NN=C1c2cc(S(=O)(=O)NCCO)ccc2-c2ccc(S(=O)(=O)NCCO)cc21 [Compound 2]
[2]
  EC50: 0.1 to 1 nM
  Emax: 50 to 200%

## CC[C@H](C)[C@H](N)C(=O)NCCN1CCOCC1 [LM11A-31, reference compound]
[3]
  blocking of Aβ-induced degeneration: blocked Aβ-induced degeneration
[3]; LM11A-31 100 nM plus NGF 100 ng/mL, 10 μM Aβ1-42
  blocking activity in combination with NGF: blocked by NGF

## COC(=O)[C@@]1(O)C[C@H]2O[C@]1(C)n1c3ccccc3c3c4c(c5c6ccccc6n2c5c31)C(=O)NC4 [Compound K252a]
[4]; DARP32-positive neurons
  effect of K252a on prevention of cell death by BDNF and BD2-4: decreased the ability of BDNF and BD2-4 to prevent cell death
[5]; K252a (200 nM) versus culture medium alone
  effect on cell survival, inhibitor alone: small effect on lowering cell survival
[1]; K252a without BDNF or BD2-4
  effect of K252a on quinolinic acid-induced death: no effect on quinolinic acid-induced death
[1]; quinolinic acid-treated striatal neurons
  effect of K252a on prevention of death by BDNF and BD2-4: block the ability of BDNF and BD2-4 to prevent death

## COc1ccc(-c2csc(N/N=C/c3ccc(O)cc3O)n2)cc1 [Compound 24]
[3]
  blocking of Aβ-induced degeneration: as effective as BDNF in blocking Aβ-induced degeneration

## CC(=O)Nc1ccc(/C=C(\C#N)c2nn(CCO)c(N)c2C#N)cc1 [Compound 3]
[2]
  EC50: 0.1 to 1 nM
  Emax: 50 to 200%

## O=C(NCCO)c1cc(C(=O)NCCO)cc(C(=O)NCCO)c1 [Compound 4]
[6]
  TrkB activation (Trk phosphorylation at Y490): activate TrkB
[7]
  effect on BDNF activity (partial agonism): partial agonist of BDNF; also recorded: causes an inhibition of BDNF activity
[4]; quinolinic acid-induced death
  protection of DARP32-positive neurons: protects DARP32-positive neurons with an efficacy similar to that of BDNF
[8]
  TrkC activation (Trk phosphorylation at Y490): do not activate TrkC
[9]
  TrkA activation (Trk phosphorylation at Y490): not TrkA; also recorded: do not
[2]; E16 hippocampal neurons
  prevention of death of hippocampal neurons / neurotrophic effect: neurotrophic effects similar to that of BDNF; also recorded: prevents the death of E16 hippocampal neurons
[2]
  EC50: 0.1 to 1 nM
  Emax: 50 to 200%
[5]; MPP+ 100 μM
  block of death-inducing activity of MPP+: significantly blocked to a similar extent
[3]
  blocking of Aβ-induced degeneration: as effective as BDNF in blocking Aβ-induced degeneration

## C[n+]1ccc(-c2ccccc2)cc1 [MPP^+, 1-methyl-4-phenylpyridinium]
[5]; MPP+ 100 μM
  cell death, toxin alone: promotes death of essentially all cells

Source: US8686045B2 (priority 2005, dated 2014)
